The record followed here is patent US20250195475A1, “CDK2 INHIBITOR AND PREPARATION METHOD AND USE THEREOF” (INVENTISBIO CO., LTD., priority 2022, published 2025).

In this experiment the target is CDK2/CyclinE1 (Homo sapiens (Human), UniProt P24941). The experiment is described as follows: CDK2 kinase assay (TR-FRET). It is filed as biochemical. The conditions noted are these: CDK2/CyclinE1 0.5 nM, ATP 50 μM. The protocol: The purpose of these assays is to evaluate the inhibition of small molecule inhibitors by using TR-FRET assay.
Compound Preparation. Dissslove the compounds into DMSO solution to make 10 mM DMSO stock. Serially dilute the stock solution from highest concentration down to lowest in DMSO to make the compound stock plate (100× stock plates). To make 5× compound intermediate plate, add 38 μL of assay buffer (50 mM HEPES, pH 7.5, 0.05 mg/mL BSA, 10 mM MgCl2, 1 mM EGTA, 0.01% Tween-20, 2 mM DTT) into each well of the V-bottom plate; then transfer 2 μL of the stock compound solution of each concentration from the compound stock plate (100× stock), and mix well.
Enzyme reaction. Transfer 2 μL compound from 5× intermediate plate into assay plate, then add 4 μL/well 2.5× Enzyme mix to assay plate, incubation for 10 min at room temperature. For positive control wells, add 4 μL/well assay buffer instead of Enzyme mix. Then add 4 μL/well 2.5× Substrate mix to assay plate, and incubation at 25° C. for 30 min at room temperature. After reaction, 10 μL 2× Detection mix (final 15 mM EDTA, 1× LANCE Detection Buffer, 0.5 nM Detection antibody) was added and incubated for 1 h prior to detection with excitation and emission at 320 and 665 nm (Tecan Spark® TR-FRET mode Tecan).
Inhibition rate (IR) of the tested compounds was determined by the following formula: IR (%)=(average High control−compound well)/(average High control−average Low control)*100%. Fit the compound IC50 from non-linear regression equation: Y=Bottom+(Top−Bottom)/(1+10^((Log IC50−X)*HillSlope)). X: Log of cpd concentration; Y: Inhibition rate (TR); Top and Bottom: Plateaus in same units as Y, log IC50: same log units as X; HillSlope: Slope factor or Hill slope.

Broadly, the IC50 is the concentration at which inhibition is half-maximal. `Cc1c([C@@H]2C[C@H]2C(=O)Nc2cc([C@H]3CC[C@@H](OC(=O)NC4(C)CCC4)C3)[nH]n2)cnn1C` [Compound 218] registered an IC50 of 0.6 nM.

For the compound `Cc1cc(CC(=O)Nc2cc([C@H]3CC[C@@H](OC(=O)NC4COC5(CCC5)C4)C3)[nH]n2)on1` (single isomer, unassigned) [Compound 39], 4 nM corresponded to half-maximal inhibition (IC50). `COCc1cc(C(=O)Nc2cc([C@H]3C[C@@H]4[C@H](C3)[C@H]4C(=O)NC(C)(C)C)[nH]n2)n(C)n1` [Compound 98] gave an IC50 of 18.8 nM. Compound `Cc1cc(C(=O)Nc2cc([C@@H]3C[C@H](OC(=O)NC(C)C)CO3)[nH]n2)n(C)n1` [Compound 91] showed an IC50 of 19.1 nM.

The compound `CC(C)NC(=O)O[C@@H]1CC[C@H](c2cc(NC(=O)C3CC4CCC3O4)n[nH]2)C1` (single isomer, unassigned) [Compound 152] came in with an IC50 of 85.5 nM.

`Cn1nc(C2CC2)cc1C(=O)Nc1cc([C@H]2CC[C@@H](OC(=O)NC3COC4(CCC4)C3)C2)[nH]n1` (single isomer, unassigned) [Compound 48] had an IC50 of 10.7 nM. The value for `Cn1nccc1C(=O)Nc1cc([C@H]2C[C@@H](OC(=O)NC3(C)CCC3)CO2)[nH]n1` [Compound 138] was 1 nM. The compound `COC1CN(CC(=O)Nc2cc([C@H]3CC[C@@H](OC(=O)NC(C)C)C3)[nH]n2)C1` [Compound 72] showed an IC50 of 210 nM. In the case of `CC(C)NC(=O)O[C@@H]1CC[C@H](c2cc(NC(=O)CN3CC(F)C3)n[nH]2)C1` [Compound 82] it was 114 nM; in that of `COC1CCC(C(=O)Nc2cc([C@H]3CC[C@@H](OC(=O)NC(C)C)C3)[nH]n2)C1` (single isomer, unassigned) [Compound 61], 13.1 nM. With `COCC1CC(C(=O)Nc2cc([C@H]3CC[C@@H](OC(=O)NC(C)C)C3)[nH]n2)C1` (single isomer, unassigned) [Compound 149], the IC50 stood at 13.4 nM. The IC50 values of the last two compounds are within 1.5-fold of each other.

`CCC(C)(C)NC(=O)O[C@H]1CO[C@@H](c2cc(NC(=O)c3ccnn3C)n[nH]2)C1` [Compound 190]: the IC50 amounted to 0.6 nM.

The compound `COC[C@H]1C[C@@H]1C(=O)Nc1cc([C@H]2CC[C@@H](OC(=O)NC(C)C(F)F)C2)[nH]n1` (single isomer, unassigned) [Compound 107] had an IC50 of 3 nM. For the compound `CC(C)NC(=O)O[C@@H]1CC[C@H](c2cc(Nc3nccc(CCO)n3)n[nH]2)C1` [Compound 29], 68.8 nM corresponded to half-maximal inhibition (IC50). `COC[C@H]1C[C@@H]1C(=O)Nc1cc([C@H]2CC[C@@H](OC(N)=O)C2)[nH]n1` [Compound 40] registered an IC50 of 47.7 nM. The IC50 values of the last two compounds are within 1.5-fold of each other. For `CC1(NC(=O)OC2COC(c3cc(NC(=O)Cc4cc(F)cc(F)c4)n[nH]3)C2)CCOC1` (centres unmarked) [Compound 50], half-maximal inhibition (IC50) required 0.9 nM.

With `CCC1(NC(=O)O[C@@H]2CO[C@H](c3cc(NC(=O)c4ccnn4C)n[nH]3)C2)CCC1` [Compound 178], the IC50 was 1.4 nM. The value for `CC1(NC(=O)O[C@@H]2CC[C@H](c3cc(NC(=O)[C@@H]4CCN(S(C)(=O)=O)C4)n[nH]3)C2)CCC1` [Compound 119] was 0.4 nM; that for `Cn1nccc1C(=O)Nc1cc([C@H]2CC[C@@H](OC(=O)NC3COC4(CCC4)C3)C2)[nH]n1` (single isomer, unassigned) [Compound 43] was 12.1 nM. The value for `CC(C)NC(=O)OC1COC(c2cc(NC(=O)Cc3ccc(C(F)(F)F)cc3)n[nH]2)C1` (centres unmarked) [Compound 63] was 9.7 nM; that for `CC(C)NC(=O)O[C@@H]1CC[C@H](c2cc(NC(=O)C34CC(C3)C4)n[nH]2)C1` [Compound 46] was 1.5 nM. The value for `CC(C)NC(=O)O[C@H]1CO[C@@H](c2cc(NC(=O)c3cc(C(F)F)nn3C)n[nH]2)C1` [Compound 111] was 4.1 nM; that for `C#C[C@H]1C[C@@H]1C(=O)Nc1cc([C@H]2C[C@@H](OC(=O)NC(C)C)CO2)[nH]n1` [Compound 164] was 1.5 nM. In the case of `Cc1c(C2CC2C(=O)Nc2cc([C@@H]3CC[C@H](OC(=O)NC(C)C)C3)[nH]n2)cnn1C` (single isomer, unassigned) [Compound 208], 0.8 nM corresponded to half-maximal inhibition (IC50). This IC50 is about 1.9-fold lower than that of the compound before. The value for `CC(C)NC(=O)O[C@@H]1CO[C@H](c2cc(NC(=O)Cc3ccccc3S(C)(=O)=O)n[nH]2)C1` [Compound 135] was 13.5 nM; that for `CC(C)NC(=O)O[C@H]1CO[C@@H](c2cc(NC(=O)c3ccnn3CC(F)F)n[nH]2)C1` [Compound 92] was 2 nM; that for `CC1(NC(=O)O[C@@H]2CC[C@H](c3cc(NC(=O)[C@@H]4CCN(S(=O)(=O)C5CC5)C4)n[nH]3)C2)CCC1` [Compound 139] was 0.7 nM.

`C#C[C@H]1C[C@@H]1C(=O)Nc1cc([C@@H]2C[C@H](OC(=O)N[C@@H](C)CC)CO2)[nH]n1` [Compound 156] registered an IC50 of 6 nM. The value for `CC(C)NC(=O)O[C@@H]1CC[C@H](c2cc(NC(=O)C3CC34CCOC4)n[nH]2)C1` (some centres unmarked) [Compound 174] was 61.1 nM; that for `Cn1nccc1C(=O)Nc1cc([C@H]2C[C@@H](OC(=O)NC(C)(C)C)CO2)[nH]n1` [Compound 101] was 1.5 nM; that for `CC(C)NC(=O)O[C@@H]1CC[C@H](c2cc(NC(=O)C34CC(C(F)F)(C3)C4)n[nH]2)C1` [Compound 106] was 1.8 nM. `CC(C)NC(=O)O[C@@H]1CC[C@H](c2cc(NC(=O)C3CC3c3cnnn3C)n[nH]2)C1` (single isomer, unassigned) [Compound 153]: it took 2.1 nM to reach half-maximal inhibition (IC50). This IC50 and that of the compound before are within 1.5-fold of each other. The value for `Cn1nc(C2CC2)cc1C(=O)Nc1cc([C@H]2CC[C@@H](OC(=O)NC3COC4(CCC4)C3)C2)[nH]n1` (single isomer, unassigned) [Compound 47] was 64 nM; that for `CC[C@H](C)NC(=O)O[C@@H]1CC[C@H](c2cc(NC(=O)C3CC3C#N)n[nH]2)C1` (single isomer, unassigned) [Compound 200] was 0.9 nM; that for `CS(=O)(=O)N1CC[C@@H](C(=O)Nc2cc([C@H]3CC[C@@H](OC(=O)NC4(C(F)F)CC4)C3)[nH]n2)C1` [Compound 124] was 1.2 nM. For the compound `COC[C@H]1C[C@@H]1C(=O)Nc1cc([C@H]2CC[C@@H](OC(=O)NC34CC(F)(C3)C4)C2)[nH]n1` [Compound 125], half-maximal inhibition (IC50) was put at 1.3 nM. This IC50 and that of the compound before are within 1.5-fold of each other. `CC(C)NC(=O)O[C@@H]1CC[C@H](c2cc(NC(=O)[C@@H]3C[C@@H](C)N(S(C)(=O)=O)C3)n[nH]2)C1` [Compound 127] had an IC50 of 3.6 nM. In turn, `CC(C)NC(=O)O[C@@H]1CC[C@H](c2cc(NC(=O)C3CC3c3cnn(C)c3)n[nH]2)C1` (single isomer, unassigned) [Compound 209] displayed an IC50 of 29 nM. In the case of `Cc1occc1C(=O)Nc1cc([C@H]2C[C@@H](OC(=O)NC(C)C)CO2)[nH]n1` [Compound 129] it was 11.8 nM; in that of `Cn1nccc1C(=O)Nc1cc([C@H]2CC[C@@H](OC(=O)NC34CCC(CC3)OC4)C2)[nH]n1` [Compound 42], 4.4 nM. The value for `CC(C)NC(=O)O[C@@H]1CC[C@H](c2cc(NC(=O)C3CC(C)N(S(C)(=O)=O)C3)n[nH]2)C1` (single isomer, unassigned) [Compound 144] was 4.3 nM. In the case of `Cn1nccc1C(=O)Nc1cc([C@@H]2C[C@H](OC(=O)NC3(CF)CCC3)CO2)[nH]n1` [Compound 216] it was 1.8 nM; in that of `Cc1c(C2CC2C(=O)Nc2cc([C@H]3CC[C@@H](OC(=O)NC4(C)CCC4)C3)[nH]n2)cnn1C` (some centres unmarked) [Compound 217], 29.7 nM; in that of `CC1(NC(=O)O[C@@H]2CC[C@H](c3cc(NC(=O)C4CC4C#N)n[nH]3)C2)CC1` (single isomer, unassigned) [Compound 213], 0.9 nM. As for `CC1(NC(=O)O[C@@H]2CC[C@H](c3cc(NC(=O)C4CC4C#N)n[nH]3)C2)CC1` (single isomer, unassigned) [Compound 212], the IC50 came out at 2.1 nM. Compared with the last compound, the IC50 is about 2.3-fold higher. In the case of `COC[C@H]1C[C@@H]1C(=O)Nc1cc([C@H]2CC[C@@H](OC(=O)NC3(C)CC3)C2)[nH]n1` [Compound 35] it was 0.8 nM. In the case of `COCc1cc(F)cc(CC(=O)Nc2cc([C@@H]3C[C@H](OC(=O)NC(C)C)CO3)[nH]n2)c1` [Compound 104] it was 17.5 nM; in that of `C#C[C@H]1C[C@@H]1C(=O)Nc1cc([C@H]2CC[C@@H](OC(=O)NC3(C)CC3)C2)[nH]n1` [Compound 141], 0.5 nM; in that of `CC(C)NC(=O)O[C@@H]1CC[C@H](c2cc(NC(=O)[C@H]3CCCN(S(C)(=O)=O)C3)n[nH]2)C1` [Compound 76], 22.7 nM.

For `CC(C)NC(=O)O[C@@H]1CC[C@H](c2cc(NC(=O)C3CC34CCOC4)n[nH]2)C1` (some centres unmarked) [Compound 175], half-maximal inhibition (IC50) was put at 174 nM.

Turning to `C#C[C@H]1C[C@@H]1C(=O)Nc1cc([C@@H]2C[C@H](OC(=O)NC3(C)CC3)CO2)[nH]n1` [Compound 157], the IC50 was found to be 2.9 nM. `CO[C@H]1CC[C@H](C(=O)Nc2cc([C@H]3CC[C@@H](OC(=O)NC(C)C)C3)[nH]n2)CC1` [Compound 2] returned an IC50 of 17.8 nM. In the case of `CCc1cc(C(=O)Nc2cc([C@H]3C[C@@H](OC(=O)NC(C)C)CO3)[nH]n2)n(C)n1` [Compound 79] it was 7.6 nM.
